We go through 50 molecules from patent US9480259B2, “Pyrazolopyrans having herbicidal and pharmaceutical properties” (BASF SE, priority 2012, dated 2016).

In this assay the target is Arabidopsis thaliana SHMT. The experiment in a line: SHMT activity assay (ED50 SHMT), coupled with N5,N10-CH2-THF dehydrogenase, NADH at 340 nm. In kind it is biochemical. The method, boiled down:
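His-tagged SHMT purified on Ni-NTA. NADH formation followed at 340 nm for 30 min; ED50 from inhibition of initial velocity.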

Setting [1] is: Table 2, Arabidopsis thaliana SHMT enzyme assay, values given as upper bounds.
Where [2] appears, read: inhibition of initial velocity of Arabidopsis thaliana SHMT.
[3] abbreviates: Table 2, values given as upper bounds.
Where [4] appears, read: Arabidopsis thaliana SHMT enzyme assay, values given as upper bounds.

A value given as a limit tells only on which side of the number the result lay.

On to `N#CC1=C(N)Oc2[nH]ncc2C1(c1cc(Br)cc(Br)c1)C1CC=CC1` (centres unmarked) [Compound 2.301], for which the EC50 – broadly, the midpoint of the concentration-response curve – under setting [1] is less than 0.1 µM.
Under setting [2], `COC(=O)c1ccc(C2(C3CCC3)C(C#N)=C(N)Oc3[nH]nc(C)c32)s1` (centres unmarked) [Compound 4.27] showed an EC50 of less than 0.01 µM.
Under setting [3], `CCCC1(c2cc(C#N)cc(C(F)(F)F)c2)C(C#N)=C(N)Oc2[nH]nc(OC)c21` (centres unmarked) [Compound 2.600] displayed an EC50 of less than 1 µM.
On the same count and under the same terms, next, `COc1ccc(C2(C3CC3)C(C#N)=C(N)Oc3[nH]nc(C)c32)cc1Cl` (centres unmarked) [Compound 2.149.]: less than 0.1 µM.
`Cc1n[nH]c2c1C(c1ccc(CCC#N)c(C#N)c1)(C1CCC1)C(C#N)=C(N)O2` (centres unmarked) [Compound 2.647] displayed an EC50 under setting [3] of less than 0.01 µM.
Consider `Cc1n[nH]c2c1C(c1cc(C#N)cc(C#N)c1)(C1CC1)C(C#N)=C(N)O2` (centres unmarked) [Compound 2.366], for which the EC50 under setting [1] was less than 0.01 µM.
Consider `CCC1(c2cccc(C(F)(F)F)c2)C(C#N)=C(N)Oc2[nH]nc(C(C)C)c21` (centres unmarked) [Compound 2.118.], for which, under setting [3], the EC50 is less than 1 µM.
The same measure, in the same setting: next, `Cc1n[nH]c2c1C(c1cccc(C(F)(F)F)c1)(C1CCCC1)C(C#N)=C(N)O2` (centres unmarked) [Compound 2.213.]: less than 0.01 µM; `Cc1n[nH]c2c1C(c1cccc(Cl)c1)(C1CCC1)C(C#N)=C(N)O2` (centres unmarked) [Compound 2.172.]: less than 0.1 µM; `Cc1n[nH]c2c1C(c1ccc(OC(F)(F)F)cc1)(C1CCC1)C(C#N)=C(N)O2` (centres unmarked) [Compound 2.183.]: less than 1 µM.
The same measure, in the same setting: next, `Cc1n[nH]c2c1C(c1cc(C#N)cc(OCC#N)c1)(C1CCC1)C(C#N)=C(N)O2` (centres unmarked) [Compound 2.471]: less than 0.01 µM.
On the same count and under the same terms, as for `CCC1(c2ccc(F)c(C(F)(F)F)c2)C(C#N)=C(N)Oc2[nH]nc(C)c21` (centres unmarked) [Compound 2.65.], the figure is less than 1 µM.
With `COc1ccc(C2(C3(F)CC3)C(C#N)=C(N)Oc3[nH]nc(C)c32)cc1C(F)(F)F` (centres unmarked) [Compound 2.267], the half-maximal effective concentration (EC50) under setting [1] was less than 0.01 µM.
The molecule `Cc1n[nH]c2c1C(c1cc(Cl)cc(Cl)c1)(C1CC1(F)F)C(C#N)=C(N)O2` (centres unmarked) [Compound 2.270] gave an EC50 under setting [1] of less than 0.01 µM.
In turn, `CSc1cccc(C2(C3CCC3)C(C#N)=C(N)Oc3[nH]nc(C)c32)c1` (centres unmarked) [Compound 2.310] displayed an EC50 under setting [1] of less than 0.01 µM.
On the same count and under the same terms, as for `CCOc1n[nH]c2c1C(c1cc(Cl)cc(Cl)c1)(C1CCC1)C(C#N)=C(N)O2` (centres unmarked) [Compound 2.387], the figure is less than 0.1 µM.
Same read-out and setting: next, `C#CCCC1(c2cc(Cl)cc(Cl)c2)C(C#N)=C(N)Oc2[nH]nc(C)c21` (centres unmarked) [Compound 2.314]: less than 0.1 µM.
As for `Cc1n[nH]c2c1C(c1ccc(-c3ccc(C(F)(F)F)cc3)s1)(C1CCC1)C(C#N)=C(N)O2` (centres unmarked) [Compound 4.26], the EC50 under setting [2] was less than 0.01 µM.
Under setting [3], `Cc1n[nH]c2c1C(c1cc(Br)cc(OCC(=O)O)c1)(C1(F)CC1)C(C#N)=C(N)O2` (centres unmarked) [Compound 2.503] yielded an EC50 of less than 10 µM.
For the molecule `Cc1n[nH]c2c1C(c1cc(Cl)cc(Cl)c1)(C1CCCC1)C(C#N)=C(N)O2` (centres unmarked) [Compound 2.199.], the half-maximal effective concentration (EC50) under setting [3] is less than 1 µM.
The same measure, in the same setting: as for `COc1c(F)cc(C2(C3CCC3)C(C#N)=C(N)Oc3[nH]nc(C)c32)cc1F` (centres unmarked) [Compound 2.447], the figure is less than 0.01 µM; as for `Cc1n[nH]c2c1C(CC(C)C)(c1ccc(Cl)cc1)C(C#N)=C(N)O2` (centres unmarked) [Compound 2.142.], less than 10 µM.
The same measure, in the same setting: as for `CCC1(c2ccc(OC(C)(C)C)cc2)C(C#N)=C(N)Oc2[nH]nc(C)c21` (racemic) [Compound 2.27.], the figure is less than 10 µM; as for `CCC1(c2ccc(OS(=O)(=O)CC)cc2)C(C#N)=C(N)Oc2[nH]nc(C)c21` (centres unmarked) [Compound 2.26.], less than 10 µM.
On the same count and under the same terms, next, `Cc1n[nH]c2c1C(c1cc(Cl)cc(CCc3nnn[nH]3)c1)(C1CCC1)C(C#N)=C(N)O2` (centres unmarked) [Compound 2.539]: less than 0.01 µM.
`Cc1n[nH]c2c1C(c1ccc3c(c1)OCCO3)(C1(F)CC1)C(C#N)=C(N)O2` (racemic) [Compound 4.51] gave an EC50 under setting [2] of less than 0.1 µM.
Molecule `CCC1(c2cc(F)cc(Cl)c2)C(C#N)=C(N)Oc2[nH]nc(C)c21` (centres unmarked) [Compound 2.20.] registered an EC50 under setting [3] of less than 1 µM.
Same read-out and setting: as for `CCC1(c2ccc(OC)c(OC)c2)C(C#N)=C(N)Oc2[nH]nc(C)c21` (centres unmarked) [Compound 2.21.], the figure is less than 1 µM.
`Cc1n[nH]c2c1C(c1cc(C#N)cc(C(F)(F)F)c1)(C1CC=CC1)C(C#N)=C(N)O2` (centres unmarked) [Compound 2.367]: the 50% effective concentration (EC50) under setting [1] was less than 0.01 µM.
For the molecule `Cc1n[nH]c2c1C(c1nc3c(Br)cccc3o1)(C1CCC1)C(C#N)=C(N)O2` (racemic) [Compound 4.58], the EC50 under setting [2] was less than 0.1 µM.
`CCCC1(c2cc(Cl)cc(C#N)c2)C(C#N)=C(N)Oc2[nH]nc(C(F)F)c21` (centres unmarked) [Compound 2.608] showed a concentration giving a half-maximal response (EC50) under setting [3] of less than 0.01 µM.
In the case of `COC(=O)c1ccc(-c2cc(C#N)cc(C3(C(C)C)C(C#N)=C(N)Oc4[nH]nc(C)c43)c2)o1` (centres unmarked) [Compound 2.706], under setting [4], the EC50 is less than 0.01 µM.
`Cc1n[nH]c2c1C(c1cc(Cl)cc(Oc3cccc(F)c3)c1)(C1CC1)C(C#N)=C(N)O2` (centres unmarked) [Compound 2.190.] gave an EC50 under setting [3] of less than 0.1 µM.
As for `Cc1n[nH]c2c1C(c1cc(Cl)cc(-c3ccsc3)c1)(C1CC1)C(C#N)=C(N)O2` (centres unmarked) [Compound 2.275], the concentration giving a half-maximal response (EC50) under setting [1] was less than 0.01 µM.
Turning to `CCC1(c2ccc(OCc3ccccc3)cc2)C(C#N)=C(N)Oc2[nH]nc(C)c21` (centres unmarked) [Compound 2.28.], the concentration giving a half-maximal response (EC50) under setting [3] is less than 1 µM.
The same measure, in the same setting: next, `CCC1(c2ccc(Oc3ccccc3)cc2)C(C#N)=C(N)Oc2[nH]nc(C3CC3)c21` (centres unmarked) [Compound 2.131.]: less than 10 µM.
On the same count and under the same terms, next, `Cc1cc(C2(C3CC3)C(C#N)=C(N)Oc3[nH]nc(C)c32)ccc1O` (centres unmarked) [Compound 2.111.]: less than 10 µM; `Cc1n[nH]c2c1C(c1cc(C#N)cc(-c3ccc(C(=O)O)cc3)c1)(C1CCC1)C(C#N)=C(N)O2` (centres unmarked) [Compound 2.460]: less than 0.01 µM; `CCC1(c2ccc(Oc3ccc(C(F)(F)F)cc3Cl)c(C)c2)C(C#N)=C(N)Oc2[nH]nc(C3CC3)c21` (centres unmarked) [Compound 2.164.]: less than 10 µM.
Consider `Cc1n[nH]c2c1C(c1cc(Cl)cc(Oc3ccc(Cl)cc3)c1)(C1CCC1)C(C#N)=C(N)O2` (centres unmarked) [Compound 2.341], for which the concentration for a half-maximal effect (EC50) under setting [1] is less than 0.01 µM.
With `CCc1n[nH]c2c1C(CC)(c1cc(Cl)cc(C#N)c1)C(C#N)=C(N)O2` (centres unmarked) [Compound 2.573], the 50% effective concentration (EC50) under setting [3] is less than 0.1 µM.
On the same count and under the same terms, next, `CCC1(c2ccc(C(F)(F)F)cc2)C(C#N)=C(N)Oc2[nH]nc(C)c21` (centres unmarked) [Compound 2.30.]: less than 10 µM.
In turn, `Cc1n[nH]c2c1C(c1cc(Cl)cc(SCC#N)c1)(C1CCC1)C(C#N)=C(N)O2` (centres unmarked) [Compound 2.665] registered a concentration for a half-maximal effect (EC50) under setting [4] of less than 0.01 µM.
The molecule `Cc1n[nH]c2c1C(c1cc(C#N)cc(-c3ccc(F)c(C(=O)O)c3)c1)(C1CCC1)C(C#N)=C(N)O2` (centres unmarked) [Compound 2.558] registered an EC50 under setting [3] of less than 0.01 µM.
Still for that read-out and setting: next, `CCC1(c2ccc(C(F)(F)F)c(F)c2)C(C#N)=C(N)Oc2[nH]nc(C)c21` (centres unmarked) [Compound 2.29.]: less than 10 µM.
Turning to `Cc1n[nH]c2c1C(c1cccc(OC(F)(F)F)c1)(C1CCC1)C(C#N)=C(N)O2` (centres unmarked) [Compound 2.278], the EC50 under setting [1] was less than 0.01 µM.
For the molecule `COC(=O)c1ccc(-c2cc(C#N)cc(C3(C4CCC4)C(C#N)=C(N)Oc4[nH]nc(C)c43)c2)cc1Cl` (centres unmarked) [Compound 2.546], the concentration giving a half-maximal response (EC50) under setting [3] was less than 0.1 µM.
As to `CCC1(c2cccc(C(F)(F)F)c2)C(C#N)=C(N)Oc2[nH]nc(CCC(F)F)c21` (centres unmarked) [Compound 2.106.], the EC50 under setting [3] is less than 10 µM.
Under setting [2], `COc1c(F)cc(-c2ccc(C3(C4CCC4)C(C#N)=C(N)Oc4[nH]nc(C)c43)s2)cc1F` (centres unmarked) [Compound 4.50] had a concentration giving a half-maximal response (EC50) of less than 0.1 µM.
With `CCCC1(c2cc(C#N)cc(C#N)c2)C(C#N)=C(N)Oc2[nH]nc(C)c21` (centres unmarked) [Compound 2.535], the EC50 under setting [3] was less than 0.01 µM.
